# Measurements taken from patent US4421745A, “Antiepileptics” (Takeda Chemical Industries, Ltd., priority 1981, dated 1983).
# Columns and labels:
# West's syndrome = assay: Clinical Case 6: DN-1417 treatment of epileptic patient; format: in vivo, human; conditions: for Frequency of seizure occurrences: before DN-1417
# Method: Nitrazepam in dosage of 1.5 mg./day was administered in three divided doses to show less frequency of the seizure occurrences (from 10 times a day to 6-7 times a day). […] The drowsiness was fairly ameliorated but the frequency of the seizure occurrences was not reduced (10 times a day).
# DN-1417 in dosage of 0.03 mg./kg. (0.3 mg./day) was intravenously given for 22 days in addition to the treatment with nitrazepam in dosage of 0.6 mg./day.
# [1] = system: degenerative myoclonus epilepsy; assay: Clinical Case 1: DN-1417 treatment of epileptic patient; format: in vivo, human
# Method: They were given DN-1417, 2 mg. i.m. at 10:00 A.M. every day for 2 weeks concomitantly with the prior antiepileptics.
# [2] = system: epilepsy, tuberous sclerosis (tonic convulsion and atypical absence); assay: Clinical Case 2: DN-1417 treatment of epileptic patient; format: in vivo, human
# Method: In conjunction with the antiepileptic drugs so far used, DN-1417 was administered intramuscularly in doses of 0.5 mg. for 10 days and, then, in doses of 1 mg. for 4 days.
# [3] = system: epilepsy (tonic convulsion, tonoclonic convulsion and clonic convulsion); assay: Clinical Case 4: DN-1417 treatment of epileptic patient; format: in vivo, human
# Method: During the period from July 22 to Aug. 4, 1981, DN-1417 was administered intramuscularly in daily doses of 1 mg. for 14 days, together with the antiepileptics so far employed.
# temporal lobe epilepsy = assay: Clinical Case 5: DN-1417 treatment of epileptic patient; format: in vivo, human
# Method: In addition to the prior medication of antiepileptics (10 tablets of HYDANTOL F® each containing 25 mg. phenytoin, 8 mg. phenobarbital and 17 mg. caffeine and sodium benzoate, 1 g. of carbamazepine, 0.09 g. of phenobarbital and 250 mg. of actazolamide), DN-1417 was intramuscularly administered in dose of 1 mg./day for 2 weeks. […] From the 7th day of the DN-1417 treatment they began to explain their conditions as, "The time to get off the bed from awaking has been shortened." and "Became easy to get to the next action in doing anything."Improvement of such psychic symptoms was maintained for a week after the end of the DN-1417 treatment. Automatism occurred a week after the end of the DN-1417 treatment and impaired-consciousness seizure occurred twice in the 3rd week of post-treatment.
# Lennox's syndrome = assay: Clinical Case 3: DN-1417 treatment of epileptic patient; format: in vivo, human
# Method: During the period from July 22 to Aug. 4, 1981, 1 mg of DN-1417 was administered intramuscularly once daily for 14 consecutive days, concomitantly with the antipileptics so far employed.
# [4] = Blood concentrations of antiepileptics in Case 3
# From the text: The treatment consisted of a multiple drug therapy using phenytoin, phenobarbital, sodium valproate, nitrazepam and clonazepam.
compound,measurement,setting,value
"NC(=O)[C@@H]1CCCN1C(=O)[C@H](Cc1c[nH]cn1)NC(=O)[C@@H]1CCC(=O)O1.O=C(O)CC(O)(CC(=O)O)C(=O)O [DN-1417, (S)-γ-butyrolactone-γ-carbonyl-L-histidyl-L-prolinamide citrate]",Overall clinical effect,West's syndrome,effective for West's syndrome
same,EEG,West's syndrome; 2 weeks after the DN-1417 treatment,did not show hypsarhythmia
same,Drowsiness,West's syndrome; after a week,drowsiness due to nitrazepam was reduced
same,EEG,West's syndrome; after a week,remained unchanged
same,Seizure frequency,"West's syndrome; from the 2nd week of treatment, same at the 3rd week",5-6 times a day
same,Side effects,West's syndrome; whole course,No side effects
same,Time after withdrawal until photomyoclonic response reappeared,[1],about 80 days
same,Type of action from EEG changes and clinical symptoms,[1],antimyoclonic action though not a definite anticonvulsive action
same,Continuation of clinical improvement after withdrawal of the drug,[1]; 2 mg daily for 2 weeks,about 1 month
same,Side effect,[1]; 2 mg daily for 2 weeks,without any side effect
same,Overall clinical effect,[1]; 2 mg i.m. daily for 2 weeks with prior antiepileptics,"effective in improving myoclonus, cerebellar symptoms, psychic activity and EEG"
same,EEG,[1]; 3rd day of treatment,No improvement
same,Persistence of marked EEG improvements,[1]; after 2nd EEG at day 8 of treatment,about 50 days
same,EEG response to photic stimulation,[1]; day 8 of treatment,entirely normal
same,Overall clinical effect,[2],remarkable improvements in daily activity and improvements in clinical episode and EEG
same,Side effect,[2],no side effect
same,Clinical episodes,[2]; after 2 weeks,no clinical episodes
same,EEG,"[2]; after 2 weeks, EEG at sleep",frequency of paroxymal patterns was halved
same,Clinical episodes,"[2]; i.m. 0.5 mg for 10 days then 1 mg for 4 days with prior antiepileptics, after one week",No clinical episodes
same,Activities of daily life and mental condition (summary),[3],A remarkable improvement
same,Clinical seizures (summary),[3],No change or a slight improvement
same,EEG (summary),[3],A moderate improvement
same,Overall evaluation,[3],moderate improvement
same,Side effect,[3],no apparent side effect
same,Epileptic seizures,"[3]; 1 mg i.m. daily for 14 days with prior antiepileptics, after one week",No epileptic seizure
same,EEG,[3]; after 2 weeks,"fair improvement in continuity, with a regularity"
same,Epileptic seizures,[3]; after 2 weeks,No epileptic seizure
same,EEG,[3]; after one week,remarkable improvement
same,Seizures after withdrawal,[3]; three weeks after withdrawal,Clonic convulsion appeared on day 6 after withdrawal
same,EEG findings,temporal lobe epilepsy,No noteworthy change
same,Overall clinical effect,temporal lobe epilepsy,effective in this patient
same,Seizures during the treatment,temporal lobe epilepsy; 1 mg/day i.m. for 2 weeks with prior antiepileptics,autonomic seizure occurred once
same,Psychic symptoms such as decrease of volition,temporal lobe epilepsy; during DN-1417 treatment,improved
same,Overall clinical effect,Lennox's syndrome,"decreased incidence of clinical episodes, improved EEG findings and remarkable improvements in daily life"
same,Side effect,Lennox's syndrome,no side effect
same,Clinical episodes,"Lennox's syndrome; 1 mg i.m. once daily for 14 days with prior antiepileptics, after one week",no clinical episode
same,Clinical episodes,Lennox's syndrome; after 2 weeks,one episode of atypical absence
same,EEG,Lennox's syndrome; after 2 weeks,no polyspike-and-slow wave complex and only a decreased sharp-and-slow wave complex
same,EEG,Lennox's syndrome; after one week,decrease in polyspike-and-slow wave complex but an increase in sharp-and-slow wave complex
same,Clinical episodes,Lennox's syndrome; one week after withdrawal,No clinical episode
same,EEG,Lennox's syndrome; one week after withdrawal,"less bursts, with an increased regularity of basal wave"
"O=C1CN=C(c2ccccc2)c2cc([N+](=O)[O-])ccc2N1 [Nitrazepam, nitrazepam, reference compound]",Adverse effects,West's syndrome; nitrazepam 1.5 mg/day,Severe drowsiness and stridor
same,Frequency of seizure occurrences,West's syndrome; nitrazepam 1.5 mg/day in three divided doses,6-7 times a day
same,Frequency of seizure occurrences,West's syndrome; nitrazepam reduced to 0.6 mg/day,10 times a day
"O=C1CN=C(c2ccccc2Cl)c2cc([N+](=O)[O-])ccc2N1 [clonazepam, reference compound]",Myoclonus at rest,"[1]; clonazepam 2 mg daily combined with other antiepileptics, before DN-1417",almost complete disappearance
CCC1(c2ccccc2)C(=O)NC(=O)NC1=O [phenobarbital],Blood concentration,"[4]; Case 3, after 2 weeks of DN-1417 1 mg i.m. daily with the antiepileptics",24.6 µg/mL
same,Blood concentration,"[4]; Case 3, multiple drug therapy before DN-1417",18.9 µg/mL
O=C1NC(=O)C(c2ccccc2)(c2ccccc2)N1 [phenytoin],Blood concentration,[4]; in vivo,9.0 µg/mL
"CCCC(CCC)C(=O)[O-].[Na+] [sodium valproate, reference compound]",Convulsions,"[1]; after about 3 months on sodium valproate, before DN-1417",convulsions were inhibited
same,Myoclonus,"[1]; on sodium valproate, before DN-1417",remained prominent
same,Blood concentration,[4]; in vivo,36 µg/mL
"ACTH: ACTH therapy; adrenocorticotropic hormones (SYSMEHFRWGKPVGKKRRPVKVYPNGAEDESAEAFPLEF; Corticotropin; UniProt P01189 138-176, looked up) [reference compound]",Effect of ACTH therapy,Lennox's syndrome; before DN-1417,with no avail
